The results in this text go back to PubChem BioAssay AID274 (DTP/NCI, 2004).

Each structure is given as a SMILES string. Where “and” joins values, the source holds several entries; their conditions need not be identical. Equal entries are not always repeated. Inconclusive results and toxic doses are left out. Peptide text beside a SMILES is read from it. * marks the point of attachment. Trt = c1ccc(C(c2ccccc2)(c2ccccc2)*)cc1; Cbz = O=C(OCc1ccccc1)*

This assay concerns BDF1 mice, Lewis lung carcinoma iv, survival T/C. The experiment in a line: NCI In Vivo Anticancer Drug Screen. Data for tumor model Lewis Lung Carcinoma (intravenous) in B6D2F1 (BDF1) mice. The conditions noted are these: endpoint: median survival time, higher = longer survival. As for the experimental part:
The antitumor activity of compounds was measured in mice bearing transplantable tumors. Survival or tumor size were measured and the results are expressed as the measurement made in the treated group (T) divided by the measurement made in the vehicle treated control group (C). The tumor model used in this assay is Lewis Lung Carcinoma (intravenous) in B6D2F1 (BDF1) mice

Setting [1] is: dose: 12.5 mg/kg/injection, schedule: Q01DX009 (ip), vehicle: water.
The mark [2] stands for this setting: dose: 50.0 mg/kg/injection, schedule: Q01DX009 (ip), vehicle: saline with Tween-80.
Where [3] appears, read: dose: 100.0 mg/kg/injection, schedule: Q01DX009 (ip), vehicle: saline with Tween-80.
The mark [4] stands for this setting: dose: 200.0 mg/kg/injection, schedule: Q01DX009 (ip), vehicle: saline with Tween-80.
The mark [5] stands for this setting: dose: 25.0 mg/kg/injection, schedule: Q01DX009 (ip), vehicle: Klucel (hydroxypropylcellulose) (HPC).
The mark [6] stands for this setting: dose: 50.0 mg/kg/injection, schedule: Q01DX009 (ip), vehicle: Klucel (hydroxypropylcellulose) (HPC).
[7] abbreviates: dose: 25.0 mg/kg/injection, schedule: Q01DX009 (ip), vehicle: saline.
Setting [8] is: dose: 50.0 mg/kg/injection, schedule: Q01DX009 (ip), vehicle: saline.
[9] abbreviates: dose: 25.0 mg/kg/injection, schedule: Q01DX009 (ip), vehicle: saline with Tween-80.
Setting [10] is: dose: 12.5 mg/kg/injection, schedule: Q01DX009 (ip), vehicle: saline.
Setting [11] is: dose: 100.0 mg/kg/injection, schedule: Q01DX009 (ip), vehicle: saline.

Take `COC(=O)C(CSC(c1ccccc1)(c1ccccc1)c1ccccc1)NC(=O)C(CC(N)=O)NC(=O)OCc1ccccc1` (stereo not drawn) (Cbz-Asn-Cys(Trt)-OMe; configuration not given here): the T/C reads like this: (dose: 12.5 mg/kg/injection, schedule: Q01DX009 (ip), vehicle: distilled water + Tween-80) 103 % of control; (dose: 25.0 mg/kg/injection, schedule: Q01DX009 (ip), vehicle: distilled water + Tween-80) 101 % of control; (dose: 50.0 mg/kg/injection, schedule: Q01DX009 (ip), vehicle: distilled water + Tween-80) 89 % of control; (dose: 100.0 mg/kg/injection, schedule: Q01DX009 (ip), vehicle: distilled water + Tween-80) 100 % of control; (dose: 200.0 mg/kg/injection, schedule: Q01DX009 (ip), vehicle: distilled water + Tween-80) 105 % of control; (dose: 400.0 mg/kg/injection, schedule: Q01DX009 (ip), vehicle: distilled water + Tween-80) 98 % of control.
Consider `CN1N=C(N)c2cn(C3OC(COP(=O)(O)O)C(O)C3O)c3ncnc1c23` (configuration not stated), for which the T/C (dose: 0.39 mg/kg/injection, schedule: Q01DX009 (ip), vehicle: water) was 100 % of control; the T/C (dose: 0.78 mg/kg/injection, schedule: Q01DX009 (ip), vehicle: water) is 92 % of control; the T/C (dose: 1.56 mg/kg/injection, schedule: Q01DX009 (ip), vehicle: water) is 86 % of control; the T/C (dose: 3.12 mg/kg/injection, schedule: Q01DX009 (ip), vehicle: water) is 93 % of control; the T/C (dose: 6.25 mg/kg/injection, schedule: Q01DX009 (ip), vehicle: water) was 99 % of control; the T/C under setting [1] is 99 % of control.
Consider `Clc1ccc2c(Cl)ncnc2c1`, for which the T/C runs as follows: under setting [2], 107 % of control; under setting [3], 118 % of control; under setting [4], 111 % of control.
In the case of `Nc1nc2c(ncn2C2OC(CO)C(O)C2O)c(=O)[nH]1.Nc1nc2c(ncn2C2OC(CO)C(O)C2O)c(=O)[nH]1.[NH2-].[NH2-].[Pt+2]` (configuration not stated), the T/C under setting [1] is 99 % of control; the T/C (dose: 25.0 mg/kg/injection, schedule: Q01DX009 (ip), vehicle: water) was 96 % of control; the T/C (dose: 50.0 mg/kg/injection, schedule: Q01DX009 (ip), vehicle: water) is 104 % of control; the T/C (dose: 100.0 mg/kg/injection, schedule: Q01DX009 (ip), vehicle: water) was 113 % of control.
For the compound `O=S(=O)(O)O.[W]`, the T/C by setting is: (dose: 0.38 mg/kg/injection, schedule: Q01DX009 (ip), vehicle: saline) 102 % of control; (dose: 0.75 mg/kg/injection, schedule: Q01DX009 (ip), vehicle: saline) 118 % of control; (dose: 1.5 mg/kg/injection, schedule: Q01DX009 (ip), vehicle: saline) 98 % of control; (dose: 3.0 mg/kg/injection, schedule: Q01DX009 (ip), vehicle: saline) 119 % of control.
Turning to `CC(=O)OCC1OC(n2cc(CBr)nn2)C(OC(C)=O)C(OC(C)=O)C1OC(C)=O` (configuration not stated), the T/C by setting is: (dose: 3.12 mg/kg/injection, schedule: Q01DX009 (ip), vehicle: Klucel (hydroxypropylcellulose) (HPC)) 87 % of control; (dose: 6.25 mg/kg/injection, schedule: Q01DX009 (ip), vehicle: Klucel (hydroxypropylcellulose) (HPC)) 88 % of control; (dose: 12.5 mg/kg/injection, schedule: Q01DX009 (ip), vehicle: Klucel (hydroxypropylcellulose) (HPC)) 102 % of control; under setting [5], 106 % of control; under setting [6], 96 % of control.
In the case of `CCC(C)n1ncc2c(N(C)C)ncnc21` (configuration not stated), the T/C under setting [7] was 102 % of control and the T/C under setting [8] is 98 % of control.
Take `CCCCCc1cc(O)c2c(c1)OC(C)(C)[C@@H]1CCC(C)=C[C@@H]21`: the T/C by setting is: (dose: 200.0 mg/kg/injection, schedule: Q01DX009 (ip), vehicle: other) 89 % of control; (dose: 800.0 mg/kg/injection, schedule: Q01DX009 (ip), vehicle: other) 88 % of control.
Take `O=c1[nH]c(=O)n([C@H]2CCCO2)cc1F`: the T/C by setting is: under setting [5], 106 % of control; under setting [6], 104 % of control; (dose: 100.0 mg/kg/injection, schedule: Q01DX009 (ip), vehicle: Klucel (hydroxypropylcellulose) (HPC)) 100 % of control.
As for `CCc1nc(N)nc(N)c1-c1ccc(Cl)c([N+](=O)[O-])c1`, the T/C reads like this: (dose: 1.56 mg/kg/injection, schedule: Q01DX009 (ip), vehicle: saline with Tween-80) 100 % of control; (dose: 3.12 mg/kg/injection, schedule: Q01DX009 (ip), vehicle: saline with Tween-80) 98 % of control; (dose: 6.25 mg/kg/injection, schedule: Q01DX009 (ip), vehicle: saline with Tween-80) 111 % of control; (dose: 12.5 mg/kg/injection, schedule: Q01DX009 (ip), vehicle: saline with Tween-80) 111 % of control.
On to `O=NN(CCCl)C(=O)NCCCl`, for which the T/C runs as follows: (dose: 1.5 mg/kg/injection, schedule: Q01DX009 (ip), vehicle: Klucel (hydroxypropylcellulose) (HPC)) 122 % of control; (dose: 3.0 mg/kg/injection, schedule: Q01DX009 (ip), vehicle: Klucel (hydroxypropylcellulose) (HPC)) 305 % of control; (dose: 6.0 mg/kg/injection, schedule: Q01DX009 (ip), vehicle: Klucel (hydroxypropylcellulose) (HPC)) 163 % of control; (dose: 10.0 mg/kg/injection, schedule: Q01DX001 (ip), vehicle: saline + alcohol) 116 % of control; (dose: 12.0 mg/kg/injection, schedule: Q01DX009 (ip), vehicle: Klucel (hydroxypropylcellulose) (HPC)) 304 % of control; (dose: 20.0 mg/kg/injection, schedule: Q01DX001 (ip), vehicle: saline + alcohol) 124 % of control. Also, the T/C by setting is: (dose: 20.48 mg/kg/injection, schedule: Q01DX001 (iv), vehicle: saline + alcohol) 215 % of control; (dose: 25.6 mg/kg/injection, schedule: Q01DX001 (iv), vehicle: saline + alcohol) 268 % of control; (dose: 32.0 mg/kg/injection, schedule: Q01DX001 (iv), vehicle: saline + alcohol) 267 % of control; (dose: 40.0 mg/kg/injection, schedule: Q01DX001 (ip), vehicle: saline + alcohol) 109 % of control; (dose: 40.0 mg/kg/injection, schedule: Q01DX001 (iv), vehicle: saline + alcohol) 268 % of control; (dose: 50.0 mg/kg/injection, schedule: Q01DX001 (ip), vehicle: saline + alcohol) 117 % of control. Moreover, the T/C by setting is: (dose: 50.0 mg/kg/injection, schedule: Q01DX001 (iv), vehicle: saline + alcohol) 268 % of control; (dose: 62.5 mg/kg/injection, schedule: Q01DX001 (iv), vehicle: saline + alcohol) 268 % of control.
Turning to `CC(C)n1cnc2c(Cl)ncnc21`, the T/C under setting [9] was 113 % of control and the T/C under setting [2] was 95 % of control.
As for `CN(C)/N=N/c1nc[nH]c1C(N)=O`, the T/C reads like this: (dose: 16.0 mg/kg/injection, schedule: Q01DX009 (ip), vehicle: Klucel (hydroxypropylcellulose) (HPC)) 102 % of control; under setting [5], 150 % of control; (dose: 32.0 mg/kg/injection, schedule: Q01DX009 (ip), vehicle: Klucel (hydroxypropylcellulose) (HPC)) 109 % of control; under setting [6], 118 % of control; (dose: 128.0 mg/kg/injection, schedule: Q01DX009 (ip), vehicle: Klucel (hydroxypropylcellulose) (HPC)) 117 % of control; (dose: 256.0 mg/kg/injection, schedule: Q01DX009 (ip), vehicle: Klucel (hydroxypropylcellulose) (HPC)) 123 % of control.
As to `[CH3][Sn]([CH3])([Cl])[S]CCN`, the T/C is 91 % of control (dose: 3.12 mg/kg/injection, schedule: Q01DX009 (ip), vehicle: saline); 95 % of control (dose: 6.25 mg/kg/injection, schedule: Q01DX009 (ip), vehicle: saline); 97 % of control under setting [10]; 91 % of control under setting [7].
For `CCN(CC)CCOC(=O)Cc1cccc2c(=O)cc(-c3ccccc3)oc12`, the T/C is 109 % of control under setting [10], 105 % of control under setting [7], 105 % of control under setting [8] and 101 % of control under setting [11].
Take `CC1(C)COCN1COC1CCCCC1`: the T/C was 112 % of control and 118 % of control under setting [10]; 98 % of control and 111 % of control under setting [7]; 97 % of control and 115 % of control under setting [8]; 95 % of control and 99 % of control under setting [11].
Consider `CCCCCCCCCCCCCCCCCCCCCC(=O)Nc1ccn(C2OC(CO)C(O)C2O)c(=O)n1` (configuration not stated), for which the T/C was 94 % of control under setting [9], 124 % of control under setting [2], 113 % of control under setting [3] and 120 % of control under setting [4].
